Reference: patent US20190224153A1, “L-DOPA DERIVATIVES FOR THE TREATMENT OF NEUROLOGICAL DISEASES” (BERLIREM GMBH, priority 2016, published 2019)

Legend:
[1] = Enzymatic cleavage of L-DOPA esters in human plasma (ex vivo); conditions: pH 7.4, 37° C., after 2 hours, n=3
Method: After 2, 15, 30, 45, 60 and 120 min 200 μL sample were taken, immediately deproteinized (200 μL 0.4N PCA), precipitated (200 μL 0.1% formic acid) and centrifuged. […] For purpose of comparison L-Dopa Ethyl Ester was investigated under same conditions.

[2] = Stability against hydrolytic cleavage, aprotic versus aqueous solutions; type: physicochemical; conditions: aprotic solutions compared to aqueous solutions
Text: It is an additional aspect of the invention that the high solubility of the L-DOPA ester in aprotic solvents suitable for parenteral application (such as e.g. N-Methylpyrrolidone, Polysorbat 80, Dimethylacetamide, Solutol HS 15, Glycerol, Ethanol) also relates to L-DOPA esters known before the application date of WO 2016/155888 A1, in particular L-DOPA ethyl ester described in WO 2012/079072 A2 (Heller et al.). […] Moreover the stability is much higher even at pH-values of 5-8. L-DOPA ethyl ester solutions in aprotic solvents suitable for parenteral application could therefore solve tolerability problems known from earlier attempts to use L-DOPA ethyl ester in the treatment of neurological diseases.

Compound	converted to L-Dopa [1] [%]	stability against hydrolytic cleavage [2]
CCOC(=O)[C@@H](N)Cc1ccc(O)c(O)c1 [L-DOPA Ethyl Ester]	50	higher stability against hydrolytic cleavage compared to aqueous solutions
N[C@@H](Cc1ccc(O)c(O)c1)C(=O)OCC(O)CO (stereo partly drawn) [L-DOPA Glycerin ester]	60	
